Here are results for 24 compounds from patent US6444691B1, “1,3-disubstituted ureas as ACAT inhibitors, and method of preparing thereof” (Solvakofarma, a.s., priority 1997, dated 2002).

Test [1] deals with rat liver ACAT (acylCoa:cholesterol acyltransferase). In words: In vitro inhibition of ACAT activity, rat liver microsomal fraction. In kind it is biochemical. The conditions noted are these: rat liver microsomes, concentration 2 μM, versus enzyme activity in 1% dimethylsulfoxide. On the procedure: (§1) The biological activity of the substances was evaluated based on the in vitro inhibition of acylCoa:cholesterol acyltransferase (ACAT) activity. The enzyme was obtained from the microsomal fraction of rat liver cells and rabbit intestinal mucosa of animals fed with cholesterol. The substrates for the enzyme reaction included exogenous oleoyl co-enzyme A and endogenous cholesterol. ^14C-oleoyl co-enzyme A conversion to ^14C-cholesteryl oleate was monitored. From the mixture of extracted lipids, cholesteryl oleate was separated using thin-layer chromatography, and was quantified radiometrically. ACAT specific activity was expressed as the amount of cholesteryl oleate formed per minute per mg microsomal protein.
(§2) Efficiency was calculated as compared to enzyme activity measured in the presence of 1% dimethylsulfoxide used as the solvent to prepare solutions of the substances tested.
In general terms: Liver microsomes are a subcellular fraction often used to study metabolism.

Test [2] concerns rabbit intestinal mucosa ACAT (acylCoa:cholesterol acyltransferase). Briefly: In vitro inhibition of ACAT activity, rabbit intestinal mucosa microsomal fraction. The conditions noted are these: rabbit intestinal mucosa microsomes, concentration 2 μM, versus enzyme activity in 1% dimethylsulfoxide. It counts as biochemical. Here is the method: as §1, §2

Molecules are shown by their SMILES.

Turning to `O=C(Nc1ccc(Sc2ccc([N+](=O)[O-])cc2)cc1)Nc1ccc(Cl)cc1Cl` [Example 33, 1-(2,4-Dichlorophenyl)-3-((4′-nitrophenylthio)-phenyl)-urea], the “Efficiency (%) liver (ACAT inhibition)” value in test [1] is on record as 12%. The “Efficiency (%) mucosa (ACAT inhibition)” value in test [2] stood at 16%.

Turning to `O=C(Nc1ccc(Sc2ccc([N+](=O)[O-])cc2)cc1)Nc1c(Cl)cccc1Cl` [Example 34, 1-(2,6-Dichlorophenyl)-3-((4′-nitrophenylthio)-phenyl)-urea], the “Efficiency (%) liver (ACAT inhibition)” value in test [1] is 15%. The “Efficiency (%) mucosa (ACAT inhibition)” value in test [2] turned out to be 21%.

As to `O=C(Nc1ccc(Sc2ccc([N+](=O)[O-])cc2)cc1)Nc1ccc(Cl)c(Cl)c1` [Example 35, 1-(3,4-Dichlorophenyl)-3-((4′-nitrophenylthio)-phenyl)-urea], the “Efficiency (%) liver (ACAT inhibition)” value in test [1] came out at 0%. In test [2], the “Efficiency (%) mucosa (ACAT inhibition)” value is 20%.

In the case of `O=C(Nc1ccc(Sc2ccc([N+](=O)[O-])cc2)cc1)Nc1cc(Cl)cc(Cl)c1` [Example 36, 1-(3,5-Dichlorophenyl)-3-((4′-nitrophenylthio)-phenyl)-urea], the “Efficiency (%) liver (ACAT inhibition)” value in test [1] was 0%. In addition, in test [2], the “Efficiency (%) mucosa (ACAT inhibition)” value is reported as 0%.

Regarding `Cc1ccccc1NC(=O)Nc1ccc(Sc2ccc([N+](=O)[O-])cc2)cc1` [Example 37, 1-(2-Methylphenyl)-3-((4′-nitrophenylthio)-phenyl)-urea], the “Efficiency (%) liver (ACAT inhibition)” value in test [1] was 27%. Besides, in test [2], the “Efficiency (%) mucosa (ACAT inhibition)” value came out at 31%.

Consider `Cc1ccc(NC(=O)Nc2ccc(Sc3ccc([N+](=O)[O-])cc3)cc2)cc1` [Example 38, 1-(4-Methylphenyl)-3-((4′-nitrophenylthio)-phenyl)-urea], for which the “Efficiency (%) liver (ACAT inhibition)” value in test [1] is given as 21%. Also, the “Efficiency (%) mucosa (ACAT inhibition)” value in test [2] is reported as 32%.

For the compound `Cc1cc(C)cc(NC(=O)Nc2ccc(Sc3ccc([N+](=O)[O-])cc3)cc2)c1` [Example 41, 1-(3,5-Dimethylphenyl)-3-((4′-nitrophenylthio)-phenyl)-urea], in test [1], the “Efficiency (%) liver (ACAT inhibition)” value worked out at 18%. Moreover, the “Efficiency (%) mucosa (ACAT inhibition)” value in test [2] came out at 27%.

As for `CC(C)c1cccc(C(C)C)c1NC(=O)Nc1ccc(Sc2ccc([N+](=O)[O-])cc2)cc1` [Example 42], in test [1], the “Efficiency (%) liver (ACAT inhibition)” value stood at 88%. Besides, the “Efficiency (%) mucosa (ACAT inhibition)” value in test [2] turned out to be 71%.

On to `O=C(Nc1ccc(Sc2ccc([N+](=O)[O-])cc2)cc1)Nc1ccccc1C(F)(F)F` [Example 43, 1-(2-Trifluoromethylphenyl)-3-((4′-nitrophenylthio)-phenyl)-urea], for which, in test [1], the “Efficiency (%) liver (ACAT inhibition)” value worked out at 25%. The “Efficiency (%) mucosa (ACAT inhibition)” value in test [2] was 38%.

Regarding `O=C(Nc1ccc(Sc2ccc([N+](=O)[O-])cc2)cc1)Nc1ccc(C(F)(F)F)cc1` [Example 45, 1-(4-Trifluoromethylphenyl)-3-((4′-nitrophenylthio)-phenyl)-urea], the “Efficiency (%) liver (ACAT inhibition)” value in test [1] is reported as 23%. The “Efficiency (%) mucosa (ACAT inhibition)” value in test [2] amounted to 25%.

Regarding `O=C(Nc1ccc(Sc2ccc([N+](=O)[O-])cc2)cc1)Nc1ccccn1` [Example 46, 1-(2-Pyridyl)-3-((4′-nitrophenylthio)-phenyl)-urea], the “Efficiency (%) liver (ACAT inhibition)” value in test [1] stood at 48%. For the same compound, the “Efficiency (%) mucosa (ACAT inhibition)” value in test [2] is recorded as 46%.

In the case of `O=C(Nc1ccc(Sc2ccc([N+](=O)[O-])cc2)cc1)Nc1cccnc1` [Example 47, 1-(3-Pyridyl)-3-((4′-nitrophenylthio)-phenyl)-urea], the “Efficiency (%) liver (ACAT inhibition)” value in test [1] was 45%. Also, the “Efficiency (%) mucosa (ACAT inhibition)” value in test [2] was 36%.

For the compound `O=C(Nc1ccncc1)Nc1ccc(Sc2ccc([N+](=O)[O-])cc2)cc1` [Example 48, 1-(4-Pyridyl)-3-((4′-nitrophenylthio)-phenyl)-urea], the “Efficiency (%) liver (ACAT inhibition)” value in test [1] is reported as 53%. Moreover, the “Efficiency (%) mucosa (ACAT inhibition)” value in test [2] is listed as 35%.

Regarding `O=C(Nc1ccc(Sc2ccc([N+](=O)[O-])cc2)cc1)Nc1cccc2ccccc12` [Example 49, 1-(1-Naphthyl)-3-((4′-nitrophenylthio)-phenyl)-urea], in test [1], the “Efficiency (%) liver (ACAT inhibition)” value came out at 24%. Further, the “Efficiency (%) mucosa (ACAT inhibition)” value in test [2] is listed as 36%.

With `O=C(Nc1ccc(Sc2ccc([N+](=O)[O-])cc2)cc1)Nc1ccc2ccccc2c1` [Example 50, 1-(2-Naphthyl)-3-((4′-nitrophenylthio)-phenyl)-urea], the “Efficiency (%) liver (ACAT inhibition)” value in test [1] was 16%. Besides, the “Efficiency (%) mucosa (ACAT inhibition)” value in test [2] is 31%.

Turning to `O=C(Nc1ccc(Sc2ccc([N+](=O)[O-])cc2)cc1)NC12CC3CC(CC(C3)C1)C2` [Example 51, 1-(1-Adamantyl)-3-((4′-nitrophenylthio)-phenyl)-urea], the “Efficiency (%) liver (ACAT inhibition)” value in test [1] was found to be 45%. Also, the “Efficiency (%) mucosa (ACAT inhibition)” value in test [2] is 56%.

Consider `Nc1ccc(Oc2ccc(NC(=O)Nc3ccc(F)cc3F)cc2)cc1` [Example 52, 1-(2,4-Difluorophenyl)-3-((4′-aminophenoxy)-phenyl)-urea], for which the “Efficiency (%) liver (ACAT inhibition)” value in test [1] was 53%. Further, the “Efficiency (%) mucosa (ACAT inhibition)” value in test [2] was 64%.

For the compound `Nc1ccc(Oc2ccc(NC(=O)Nc3cccc(Cl)c3Cl)cc2)cc1` [Example 53, 1-(2,3-Dichlorophenyl)-3-((4′-aminophenoxy)-phenyl)-urea], in test [1], the “Efficiency (%) liver (ACAT inhibition)” value is listed as 55%. In test [2], the “Efficiency (%) mucosa (ACAT inhibition)” value was determined as 46%.

Take `Cc1cccc(C)c1NC(=O)Nc1ccc(Oc2ccc(N)cc2)cc1` [Example 54, 1-(2,6-Dimethylphenyl)-3-((4′-aminophenoxy)-phenyl)-urea]: in test [1], the “Efficiency (%) liver (ACAT inhibition)” value amounted to 38%. Also, in test [2], the “Efficiency (%) mucosa (ACAT inhibition)” value turned out to be 62%.

On to `CC(C)c1cccc(C(C)C)c1NC(=O)Nc1ccc(Oc2ccc(N)cc2)cc1` [Example 55, 1-(2,6-Di(methylethyl)-phenyl)-3-((4′-aminophenoxy)-phenyl)-urea], for which the “Efficiency (%) liver (ACAT inhibition)” value in test [1] was 68%. Further, the “Efficiency (%) mucosa (ACAT inhibition)” value in test [2] is 64%.

In the case of `Nc1ccc(Sc2ccc(NC(=O)Nc3ccc(F)cc3F)cc2)cc1` [Example 56, 1-(2,4-Difluorophenyl)-3-((4′-aminophenylthio)-phenyl)-urea], in test [1], the “Efficiency (%) liver (ACAT inhibition)” value stood at 22%. Also, in test [2], the “Efficiency (%) mucosa (ACAT inhibition)” value stood at 25%.

For `Nc1ccc(Sc2ccc(NC(=O)Nc3cccc(Cl)c3Cl)cc2)cc1` [Example 57, 1-(2,3-Dichlorophenyl)-3-((4′-aminophenylthio)-phenyl)-urea], the “Efficiency (%) liver (ACAT inhibition)” value in test [1] is listed as 15%. The “Efficiency (%) mucosa (ACAT inhibition)” value in test [2] was determined as 26%.

For the compound `Cc1cccc(C)c1NC(=O)Nc1ccc(Sc2ccc(N)cc2)cc1` [Example 58, 1-(2,6-Dimethylphenyl)-3-((4′-aminophenylthio)-phenyl)-urea], in test [1], the “Efficiency (%) liver (ACAT inhibition)” value is given as 21%. The “Efficiency (%) mucosa (ACAT inhibition)” value in test [2] turned out to be 29%.

As for `CC(C)c1cccc(C(C)C)c1NC(=O)Nc1ccc(Sc2ccc(N)cc2)cc1` [Example 59], in test [1], the “Efficiency (%) liver (ACAT inhibition)” value is on record as 56%. For the same compound, the “Efficiency (%) mucosa (ACAT inhibition)” value in test [2] is 67%.
